Measured values reported in patent publication US20160311791A1, “NOVEL TRICYCLIC CALCIUM SENSING RECEPTOR ANTOGONISTS FOR THE TREATMENT OF OSTEOPOSOSIS” (MERCK SHARP & DOHME CORP., priority 2013, published 2016).

Biological target: T1, human CaSR (Homo sapiens, UniProt P41180)
T1 sequence (P41180 20-1078): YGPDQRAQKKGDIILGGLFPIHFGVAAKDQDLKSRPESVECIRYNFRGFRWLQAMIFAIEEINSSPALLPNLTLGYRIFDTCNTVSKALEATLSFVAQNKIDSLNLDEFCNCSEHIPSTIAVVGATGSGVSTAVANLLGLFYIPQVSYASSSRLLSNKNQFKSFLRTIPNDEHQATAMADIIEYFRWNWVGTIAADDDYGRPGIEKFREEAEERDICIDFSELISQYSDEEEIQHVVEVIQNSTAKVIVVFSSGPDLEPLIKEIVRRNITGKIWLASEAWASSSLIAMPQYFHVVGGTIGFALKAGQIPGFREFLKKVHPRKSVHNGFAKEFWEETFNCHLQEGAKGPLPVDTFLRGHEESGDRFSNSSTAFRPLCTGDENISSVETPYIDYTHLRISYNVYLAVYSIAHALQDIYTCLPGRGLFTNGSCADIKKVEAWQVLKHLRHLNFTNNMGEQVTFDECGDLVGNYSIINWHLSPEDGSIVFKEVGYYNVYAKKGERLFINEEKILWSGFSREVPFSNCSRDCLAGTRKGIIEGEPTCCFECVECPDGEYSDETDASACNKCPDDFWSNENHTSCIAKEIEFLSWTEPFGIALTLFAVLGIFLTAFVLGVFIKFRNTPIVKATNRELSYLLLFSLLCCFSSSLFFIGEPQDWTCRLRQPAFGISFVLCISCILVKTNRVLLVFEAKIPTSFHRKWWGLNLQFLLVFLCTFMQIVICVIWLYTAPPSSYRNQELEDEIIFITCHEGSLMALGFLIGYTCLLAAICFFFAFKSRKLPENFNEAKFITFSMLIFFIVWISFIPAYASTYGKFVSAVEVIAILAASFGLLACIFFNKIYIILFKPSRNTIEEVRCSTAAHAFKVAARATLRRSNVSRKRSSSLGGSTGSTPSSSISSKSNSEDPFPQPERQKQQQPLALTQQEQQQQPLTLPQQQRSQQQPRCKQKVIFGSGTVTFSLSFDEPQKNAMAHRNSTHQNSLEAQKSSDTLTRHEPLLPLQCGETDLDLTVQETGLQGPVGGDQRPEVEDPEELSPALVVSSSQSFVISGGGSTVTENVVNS
Assay: CaSR FLIPR assay (calcilytic activity)
Assay type: cell-based
Parameters: expressed in transfected cells
Conditions: HEK293 cells stably expressing human recombinant CaSR; 1 mM CaCl2 agonist; Tables 1-24; read-out: FLIPR ASSAY IC50
Protocol: Procedures for CaSR FLIPR Assay
Calcilytic activity of the compound is measured in HEK293 cells stably expressing human recombinant CaSR (HEK-CaSR) using a FLIPR^TETRA device (Molecular Devices, Sunnyvale, Calif.) according to the manufacturer's directions. […] On the day of the assay, one vial of FLIPR Calcium 4 Assay Kit reagent Component A was equilibrated to room temperature. The content of the Component A vial was diluted by adding 10 ml dilution buffer (2×loading dye). The sample was mixed by vortexing (1-2 minutes) until the contents of the vial dissolved. The Component A vial mixture was diluted with 10 ml dilution buffer. Media was aspirated from the cells and 80 μl of loading buffer was added to each well. Plates were incubated for 1 hour at 37° C. and then placed at room temperature for 10 minutes. A two-stage method of generating 10-point serial dilutions was used. Compound was serially diluted in 100% DMSO (10 point, 3-fold dilution of each compound from 2 mM in 100% DMSO). 3 μl of serially diluted compound was transferred into a second assay microplate that contained 97 μl of TETRA dilution buffer (20 mM HEPES pH7.4, 1×HBSS without Ca and Mg, 0.4 mM CaCl2, 0.4 mM MgSO4, 0.5 mM MgCl2) to create the intermediate dilution plate. After reading the base line, the compounds in 0.5% DMSO in dilution buffer were added to their respective wells as 20 μl aliquots at 6×the final drug concentration. The fluorescence signals were then read. Subsequently, 20 μl of 3.6 mM of CaCl2 agonist (1 mM final concentration) was added to each well. For background, 20 μl of TETRA dilution buffer was added instead. The protocol consisted of a pre-addition read of 10 frames (10×1 frame/sec), a post 1st addition read of 100 frames (60×1 frame/sec, 40×1 frame/3 sec), pause 3 min, a post 2nd addition read of 100 frames (60×1 frame/sec, 40×1 frame/3 sec) on a FLIPR^TETRA Plate Reader.

| IC50 | Compound |
| --- | --- |
| 30 nM | C[C@@H](OC[C@H](O)CNC(C)(C)Cc1ccc2ccccc2c1)c1cccc2c1[C@@H]1[C@H](O2)[C@H]1C(=O)NS(=O)(=O)C1(C)CC1 [Example 6-1] |
| 137 nM | C[C@@H](OC[C@H](O)CNC(C)(C)Cc1ccc2occc2c1)c1cccc2c1[C@@H]1[C@H](O2)[C@H]1C(=O)O [Example 5-6] |
| 18 nM | Cc1ccc(CC(C)(C)NC[C@@H](O)CO[C@H](C)c2ccc(C)c3c2C2[C@H](O3)[C@H]2C(=O)O)cc1C (stereo partly drawn) [Example 8-5] |
| 381 nM | Cc1ccc(CC(C)(C)NC[C@@H](O)CO[C@H](C)c2cccc3c2O[C@H]2[C@H](C(=O)O)[C@@H]32)cc1C [Example 2-4] |
| 460 nM | Cc1ccc([C@@H](C)OC[C@H](O)CNC(C)(C)Cc2ccc3ncccc3c2)c2c1O[C@H]1C2[C@@H]1C(=O)O (stereo partly drawn) [Example 8-25] |
| > 10000 nM | C[C@@H](OC[C@H](O)CNC(C)(C)Cc1ccc([S+](C)[O-])c(F)c1)c1cccc2c1[C@@H]1[C@H](O2)[C@H]1C(=O)O (stereo partly drawn) [Example 5-15] |
| 150 nM | C[C@@H](OC[C@H](O)CNC(C)(C)CCSc1ccccc1)c1cccc2c1[C@@H]1[C@H](O2)[C@H]1C(=O)O [Example 5-17] |
| 82 nM | CSc1ccc(CC(C)(C)NC[C@@H](O)CO[C@H](C)c2ccc(C)c3c2[C@@H]2[C@H](O3)[C@H]2C(=O)O)cc1C [Example 8-34] |
| 88 nM | C[C@@H](OC[C@H](O)CNC(C)(C)Cc1ccc2c(c1)CCC2)c1cccc2c1[C@@H]1[C@H](C2)[C@H]1C(=O)O [Example 13-3] |
| 78 nM | Cc1ccc(CC(C)(C)NC[C@@H](O)CO[C@H](C)c2cccc3c2O[C@@H]2[C@@H](C(=O)O)[C@H]32)cc1F [Example 1-4] |
| 40 nM | C[C@@H](OC[C@H](O)CNC(C)(C)Cc1ccc2ccccc2c1)c1ccc(Cl)c2c1C1C(O2)C1C(=O)O (stereo partly drawn) [Example 18-1] |
| 68 nM | Cc1ccc(CC(C)(C)NC[C@@H](O)CO[C@H](C)c2ccc(C)c3c2[C@H]2[C@@H](O3)[C@@H]2C(=O)O)cc1F [Example 9-4] |
| 1270 nM | C[C@@H](OC[C@H](O)CNC(C)(C)Cc1ccc(F)c(F)c1)c1cccc2c1O[C@@H]1[C@@H](C(=O)O)[C@H]21 [Example 1-15] |
| 26 nM | C[C@@H](OC[C@H](O)CNC(C)(C)Cc1ccc2ccccc2c1)c1ccc(F)c2c1C1C(O2)C1C(=O)O (stereo partly drawn) [Example 17-1] |
| 60 nM | C[C@@H](OC[C@H](O)CNC(C)(C)Cc1ccc2ccccc2c1)c1cccc2c1O[C@@H]1[C@@H](C(=O)NS(=O)(=O)C3(C)CC3)[C@H]21 [Example 4-1] |
| 460 nM | C[C@@H](OC[C@H](O)CNC(C)(C)Cc1ccc2c(c1)OCCO2)c1cccc2c1O[C@@H]1[C@@H](C(=O)O)[C@H]21 [Example 1-10] |
| 50 nM | Cc1ccc([C@@H](C)OC[C@H](O)CNC(C)(C)CCSc2ccccc2)c2c1O[C@@H]1[C@@H](C(=O)O)[C@H]21 [Example 8-30] |
| 97 nM | CSc1ccc(CC(C)(C)NC[C@@H](O)CO[C@H](C)c2cccc3c2[C@@H]2[C@H](O3)[C@H]2C(=O)O)cc1C [Example 5-19] |
| 40 nM | CSc1ccc(CC(C)(C)NC[C@@H](O)CO[C@H](C)c2ccc(C)c3c2C2[C@H](O3)[C@H]2C(=O)O)cc1 (stereo partly drawn) [Example 8-23] |

| IC50 | Compound |
| --- | --- |
| 170 nM | COc1ccc(CC(C)(C)NC[C@@H](O)CO[C@H](C)c2cccc3c2O[C@@H]2[C@@H](C(=O)O)[C@H]32)c(Cl)c1 [Example 1-19] |
| 320 nM | C[C@@H](OC[C@H](O)CNC(C)(C)Cc1ccc2c(c1)OCO2)c1cccc2c1O[C@@H]1[C@@H](C(=O)O)[C@H]21 [Example 1-8] |
| 30 nM | CSc1ccc(CC(C)(C)NC[C@@H](O)CO[C@H](C)c2ccc(C)c3c2[C@@H]2[C@H](O3)[C@H]2C(=O)O)cc1Cl [Example 8-33] |
| 86 nM | CSc1ccc(CC(C)(C)NC[C@@H](O)CO[C@H](C)c2cccc3c2O[C@@H]2[C@@H](C(=O)O)[C@H]32)cc1Cl [Example 1-21] |
| 49 nM | C[C@@H](OC[C@H](O)CNC(C)(C)Cc1ccc2occc2c1)c1cccc2c1O[C@@H]1[C@@H](C(=O)O)[C@H]21 [Example 1-6] |
| 148 nM | C[C@@H](OC[C@H](O)CNC(C)(C)Cc1ccc(Cl)c(F)c1)c1cccc2c1O[C@H]1[C@H](C(=O)O)[C@@H]21 [Example 2-2] |
| > 10000 nM | C[C@@H](OC[C@H](O)CNC(C)(C)Cc1ccc([S+](C)[O-])cc1)c1cccc2c1O[C@@H]1[C@@H](C(=O)O)[C@H]21 (stereo partly drawn) [Example 1-16] |
| 27 nM | C[C@@H](OC[C@H](O)CNC(C)(C)Cc1ccc2sccc2c1)c1cccc2c1O[C@@H]1[C@@H](C(=O)O)[C@H]21 [Example 1-9] |
| 26 nM | Cc1ccc(CC(C)(C)NC[C@@H](O)CO[C@H](C)c2cccc3c2[C@@H]2[C@H](O3)[C@H]2C(=O)O)cc1C [Example 5-5] |
| 39 nM | C[C@@H](OC[C@H](O)CNC(C)(C)Cc1ccc(Cl)c(Cl)c1)c1cccc2c1O[C@@H]1[C@@H](C(=O)O)[C@H]21 [Example 1-13] |
| 14 nM | Cc1cc(Cl)c([C@@H](C)OC[C@H](O)CNC(C)(C)Cc2ccc3sccc3c2)c2c1O[C@@H]1[C@@H](C(=O)O)[C@H]21 [Example 16-3] |
| 130 nM | CSc1ccc(CC(C)(C)NC[C@@H](O)CO[C@H](C)c2cccc3c2[C@@H]2[C@H](C3)[C@H]2C(=O)O)cc1F [Example 13-5] |
| 9 nM | Cc1cc(Cl)c([C@@H](C)OC[C@H](O)CNC(C)(C)Cc2ccc3ccccc3c2)c2c1O[C@@H]1[C@@H](C(=O)O)[C@H]21 [Example 16-1] |
| 176 nM | C[C@@H](OC[C@H](O)CNC(C)(C)Cc1ccc2ccccc2c1)c1cc(F)cc2c1O[C@@H]1[C@@H](C(=O)O)[C@H]21 [Example 19-1] |
| 50 nM | Cc1ccc([C@@H](C)OC[C@H](O)CNC(C)(C)Cc2ccc3c(c2)OCO3)c2c1O[C@@H]1[C@@H](C(=O)O)[C@H]21 [Example 8-11] |
| 30 nM | COc1ccc(CC(C)(C)NC[C@@H](O)CO[C@H](C)c2ccc(C)c3c2[C@@H]2[C@H](O3)[C@H]2C(=O)O)c(F)c1 [Example 8-14] |
| 210 nM | Cc1ccc([C@@H](C)OC[C@H](O)CNC(C)(C)Cc2c(F)cc(F)cc2F)c2c1O[C@@H]1[C@@H](C(=O)O)[C@H]21 [Example 8-22] |
| 130 nM | CCOC(=O)[C@@H]1[C@H]2Oc3cccc([C@@H](C)OC[C@H](O)CNC(C)(C)Cc4ccc5ccccc5c4)c3[C@H]21 [Example 5-20] |
| 99 nM | Cc1ccc([C@@H](C)OC[C@H](O)CNC(C)(C)Cc2cc(F)c(F)cc2F)c2c1O[C@@H]1[C@@H](C(=O)O)[C@H]21 [Example 8-21] |

| Compound | IC50 |
| --- | --- |
| C[C@@H](OC[C@H](O)CNC(C)(C)Cc1ccc2ccccc2c1)c1c(Cl)ccc2c1[C@@H]1[C@H](O2)[C@H]1C(=O)O [Example 15-1] | 17 nM |
| Cc1ccc([C@@H](C)OC[C@H](O)CNC(C)(C)Cc2ccc3c(c2)OCCO3)c2c1O[C@@H]1[C@@H](C(=O)O)[C@H]21 [Example 8-13] | 22 nM |
| Cc1ccc([C@@H](C)OC[C@H](O)CNC(C)(C)Cc2ccc(Cl)c(F)c2)c2c1O[C@H]1[C@H](C(=O)O)[C@@H]21 [Example 9-2] | 78 nM |
| Cc1ccc([C@@H](C)OC[C@H](O)CNC(C)(C)Cc2ccc3sccc3c2)c2c1O[C@@H]1[C@@H](C(=O)O)[C@H]21 [Example 8-12] | 10 nM |
